{
  "source": "patent US10793892B2",
  "about": "“Method for detecting the presence of expanded spectrum β-lactamase-producing bacteria in a sample” (INSERM (INSTITUT NATIONAL DE LA SANTE ET DE LA RECHERCHE …, priority 2011, dated 2020)",
  "key": {"S. marcescens": {"test_system": "S. marcescens", "test": "Susceptibility testing, MIC by Etest", "type": "cell-based, Serratia marcescens", "conditions": "S. marcescens Wild-type, chromosome-encoded cephalosporinase, n=2", "protocol": "(§1) Susceptibility testing was performed by determining MIC values using the Etest® (AB bioMérieux; Solna, Sweden) on Mueller-Hinton agar plates at 37° C. and results were recorded according to US guidelines (CLSI), as updated in 2012 (2). The breakpoints for cefotaxime are susceptible (S)≤1 and resistant (R)≥4 μg/ml, and for ceftazidime S≤4 and R≥16 μg/ml."}, "C. brakii": {"test_system": "C. brakii", "test": "Susceptibility testing, MIC by Etest", "type": "cell-based", "conditions": "C. brakii Wild-type, chromosome-encoded cephalosporinase, n=1", "protocol": "as §1"}, "E. sakazakii": {"test_system": "E. sakazakii", "test": "Susceptibility testing, MIC by Etest", "type": "cell-based", "conditions": "overexpressed chromosome-encoded cephalosporinase, n=1", "protocol": "as §1"}, "S. ficaria": {"test_system": "S. ficaria", "test": "Susceptibility testing, MIC by Etest", "type": "cell-based", "conditions": "S. ficaria Wild-type, chromosome-encoded cephalosporinase, n=1", "protocol": "as §1"}, "K. oxytoca": {"test_system": "K. oxytoca", "test": "Susceptibility testing, MIC by Etest", "type": "cell-based, Klebsiella oxytoca", "conditions": "K. oxytoca Wild-type penicillinase, n=1", "protocol": "as §1"}, "E. cloacae": {"test_system": "E. cloacae", "test": "Susceptibility testing, MIC by Etest", "type": "cell-based, Enterobacter cloacae", "protocol": "as §1"}, "M. morganii": {"test_system": "M. morganii", "test": "Susceptibility testing, MIC by Etest", "type": "cell-based, Morganella morganii", "conditions": "M. morganii Wild-type, chromosome-encoded cephalosporinase, n=2", "protocol": "as §1"}, "S. enterica": {"test_system": "S. enterica", "test": "Susceptibility testing, MIC by Etest", "type": "cell-based, Salmonella enterica", "protocol": "as §1"}, "E. aerogenes": {"test_system": "E. aerogenes", "test": "Susceptibility testing, MIC by Etest", "type": "cell-based, Enterobacter aerogenes", "protocol": "as §1"}, "K. pneumoniae": {"test_system": "K. pneumoniae", "test": "Susceptibility testing, MIC by Etest", "type": "cell-based, Klebsiella pneumoniae", "protocol": "as §1"}, "P. stuartii": {"test_system": "P. stuartii", "test": "Susceptibility testing, MIC by Etest", "type": "cell-based, Providencia stuartii", "conditions": "P. stuartii TEM-24, n=1", "protocol": "as §1"}, "C. freundii": {"test_system": "C. freundii", "test": "Susceptibility testing, MIC by Etest", "type": "cell-based, Citrobacter freundii", "protocol": "as §1"}, "P. mirabilis": {"test_system": "P. mirabilis", "test": "Susceptibility testing, MIC by Etest", "type": "cell-based, Proteus mirabilis", "protocol": "as §1"}, "E. coli": {"test_system": "E. coli", "test": "Susceptibility testing, MIC by Etest", "type": "cell-based, Escherichia coli", "protocol": "as §1"}, "Enterobacteriaceae": {"test_system": "Enterobacteriaceae", "type": "biochemical", "conditions": "all CTX-M producers (n=147); tazobactam added to cefotaxime well", "quoted_text": "Strains were isolated on Mueller-Hinton agar (Biorad, Marnes-la-Coquette, France) and incubated at 37° C. for 16 h to 24 h before performing the NDP rapid ESBL test as follows. One calibrated inoculated loop (10 μl) of the tested strain was resuspended in 150 μl of 20 mM Tris-HCl lysis buffer previously distributed in Microbead tubes (Ultraclean Microbial DNA isolation kit Bead Tubes, MO BIO Laboratories, Carlsbad, USA). Mechanical lysis of bacteria was performed by strong agitation of Microbead tubes using a vortex adapter (MO BIO Laboratories) for 30 min at room temperature. This bacterial suspension was centrifuged at 10,000×g at room temperature for 5 min. Thirty μl of the supernatant was mixed in a well of a 96-well tray with 100 μl of a 1 ml solution made of 3 mg of purified cefotaxime sodium salt (Sigma-Aldrich, Saint-Quentin-Fallavier, France) in a pH 7.8 phenol red solution. […] The phenol red solution was made by taking 2 ml of a concentrated pH 8 phenol solution (made from a mixture of phenol red 0.5% in distilled water) to which 16.6 ml of distilled water was added. The pH value was then adjusted to a 7.8 value by adding drops of a 1 N NaOH solution. Mixture of the phenol red solution and the enzymatic suspension being tested was incubated at 37° C. for 30 min. Similarly, culture extracts were analyzed in wells containing cefotaxime and tazobactam (4 mg/ml). […]"}},
  "data": [
    {"smiles": "CC(C)(O/N=C(\\C(=O)N[C@@H]1C(=O)N2C(C(=O)[O-])=C(C[n+]3ccccc3)CS[C@H]12)c1csc(N)n1)C(=O)O", "note": "[CAZ, ceftazidime]", "values": [
      {"measurement": "MICs range", "setting": "S. marcescens", "value": 0.09, "unit": "µg/mL"},
      {"measurement": "MICs range", "setting": "C. brakii", "value": 0.25, "unit": "µg/mL"},
      {"measurement": "MICs range", "setting": "E. sakazakii", "value": ">32", "unit": "µg/mL"},
      {"measurement": "MICs range", "setting": "S. ficaria", "value": 0.09, "unit": "µg/mL"},
      {"measurement": "MICs range", "setting": "K. oxytoca", "value": 0.06, "unit": "µg/mL"},
      {"measurement": "MICs range", "setting": "E. cloacae; E. cloacae CTX-M-14, n=1", "value": 8, "unit": "µg/mL"},
      {"measurement": "MICs range", "setting": "E. cloacae; E. cloacae CTX-M-15, n=17", "value": "2 to 16", "unit": "µg/mL"},
      {"measurement": "MICs range", "setting": "E. cloacae; E. cloacae GES-5, n=1", "value": ">32", "unit": "µg/mL"},
      {"measurement": "MICs range", "setting": "E. cloacae; E. cloacae PER-1, n=1", "value": ">32", "unit": "µg/mL"},
      {"measurement": "MICs range", "setting": "E. cloacae; E. cloacae SHV-5, n=1", "value": ">32", "unit": "µg/mL"},
      {"measurement": "MICs range", "setting": "E. cloacae; E. cloacae TEM-3, n=2", "value": ">16", "unit": "µg/mL"},
      {"measurement": "MICs range", "setting": "E. cloacae; E. cloacae VEB-1, n=1", "value": ">32", "unit": "µg/mL"},
      {"measurement": "MICs range", "setting": "E. cloacae; E. cloacae Wild-type, chromosome-encoded cephalosporinase, n=5", "value": "0.12 to 0.38", "unit": "µg/mL"},
      {"measurement": "MICs range", "setting": "E. cloacae; E. cloacae, overexpressed chromosome-encoded cephalosporinase, n=2", "value": ">32", "unit": "µg/mL"},
      {"measurement": "MICs range", "setting": "E. cloacae; E. cloacae, overexpressed chromosome-encoded cephalosporinase, n=3", "value": ">32", "unit": "µg/mL"},
      {"measurement": "MICs range", "setting": "M. morganii", "value": "0.09 to 1", "unit": "µg/mL"},
      {"measurement": "MICs range", "setting": "S. enterica; S. enterica CTX-M-1, n=1", "value": 0.75, "unit": "µg/mL"},
      {"measurement": "MICs range", "setting": "S. enterica; S. enterica Wild-type, no resistance, n=1", "value": 0.19, "unit": "µg/mL"},
      {"measurement": "MICs range", "setting": "E. aerogenes; E. aerogenes TEM-121, n=1", "value": ">32", "unit": "µg/mL"},
      {"measurement": "MICs range", "setting": "E. aerogenes; E. aerogenes Wild-type, chromosome-encoded cephalosporinase, n=1", "value": 0.25, "unit": "µg/mL"},
      {"measurement": "MICs range", "setting": "K. pneumoniae; K. pneumoniae CTX-M-3, n=1", "value": 1.5, "unit": "µg/mL"},
      {"measurement": "MICs range", "setting": "K. pneumoniae; K. pneumoniae CTX-M-14, n=3", "value": "0.5 to 6", "unit": "µg/mL"},
      {"measurement": "MICs range", "setting": "K. pneumoniae; K. pneumoniae DHA-1, n=1", "value": ">32", "unit": "µg/mL"},
      {"measurement": "MICs range", "setting": "K. pneumoniae; K. pneumoniae DHA-2, n=1", "value": ">32", "unit": "µg/mL"},
      {"measurement": "MICs range", "setting": "K. pneumoniae; K. pneumoniae GES-1, n=1", "value": 4, "unit": "µg/mL"},
      {"measurement": "MICs range", "setting": "K. pneumoniae; K. pneumoniae SHV-2a, n=2", "value": "1 to 4", "unit": "µg/mL"},
      {"measurement": "MICs range", "setting": "K. pneumoniae; K. pneumoniae SHV-2a, n=4", "value": "2 to 4", "unit": "µg/mL"},
      {"measurement": "MICs range", "setting": "K. pneumoniae; K. pneumoniae SHV-5, n=2", "value": "16 to 32", "unit": "µg/mL"},
      {"measurement": "MICs range", "setting": "K. pneumoniae; K. pneumoniae SHV-12, n=1", "value": 8, "unit": "µg/mL"},
      {"measurement": "MICs range", "setting": "K. pneumoniae; K. pneumoniae SHV-12, n=2", "value": "16 to 32", "unit": "µg/mL"},
      {"measurement": "MICs range", "setting": "K. pneumoniae; K. pneumoniae SHV-28, n=3", "value": ">32", "unit": "µg/mL"},
      {"measurement": "MICs range", "setting": "K. pneumoniae; K. pneumoniae TEM-52, n=2", "value": ">32", "unit": "µg/mL"},
      {"measurement": "MICs range", "setting": "K. pneumoniae; K. pneumoniae Wild-type penicillinase, n=2", "value": 0.03, "unit": "µg/mL"},
      {"measurement": "MICs range", "setting": "P. stuartii", "value": 8, "unit": "µg/mL"},
      {"measurement": "MICs range", "setting": "C. freundii; C. freundii TEM-3, n=1", "value": ">16", "unit": "µg/mL"},
      {"measurement": "MICs range", "setting": "C. freundii; C. freundii Wild-type, chromosome-encoded cephalosporinase, n=1", "value": 0.25, "unit": "µg/mL"},
      {"measurement": "MICs range", "setting": "P. mirabilis; P. mirabilis ACC-1, n=1", "value": ">32", "unit": "µg/mL"},
      {"measurement": "MICs range", "setting": "P. mirabilis; P. mirabilis CTX-M-14, n=1", "value": 0.75, "unit": "µg/mL"},
      {"measurement": "MICs range", "setting": "P. mirabilis; P. mirabilis CTX-M-15, n=1", "value": 8, "unit": "µg/mL"},
      {"measurement": "MICs range", "setting": "P. mirabilis; P. mirabilis PER-1, n=1", "value": ">32", "unit": "µg/mL"},
      {"measurement": "MICs range", "setting": "P. mirabilis; P. mirabilis TEM-21, n=1", "value": 4, "unit": "µg/mL"},
      {"measurement": "MICs range", "setting": "P. mirabilis; P. mirabilis TEM-52, n=1", "value": 16, "unit": "µg/mL"},
      {"measurement": "MICs range", "setting": "E. coli; E. coli ACC-1, n=1, first line", "value": ">32", "unit": "µg/mL"},
      {"measurement": "MICs range", "setting": "E. coli; E. coli ACC-1, n=1, second line", "value": ">32", "unit": "µg/mL"},
      {"measurement": "MICs range", "setting": "E. coli; E. coli CMY-2, n=1", "value": ">32", "unit": "µg/mL"},
      {"measurement": "MICs range", "setting": "E. coli; E. coli CTX-M-1, n=16", "value": "0.5 to 2", "unit": "µg/mL"},
      {"measurement": "MICs range", "setting": "E. coli; E. coli CTX-M-2, n=3", "value": "1.5 to 4", "unit": "µg/mL"},
      {"measurement": "MICs range", "setting": "E. coli; E. coli CTX-M-3, n=1", "value": 4, "unit": "µg/mL"},
      {"measurement": "MICs range", "setting": "E. coli; E. coli CTX-M-9, n=1", "value": 0.19, "unit": "µg/mL"},
      {"measurement": "MICs range", "setting": "E. coli; E. coli CTX-M-14, n=15", "value": "0.5 to 4", "unit": "µg/mL"},
      {"measurement": "MICs range", "setting": "E. coli; E. coli CTX-M-15, n=46", "value": "0.5 to 24", "unit": "µg/mL"},
      {"measurement": "MICs range", "setting": "E. coli; E. coli CTX-M-27, n=6", "value": "0.5 to 4", "unit": "µg/mL"},
      {"measurement": "MICs range", "setting": "E. coli; E. coli CTX-M-28, n=1", "value": 8, "unit": "µg/mL"},
      {"measurement": "MICs range", "setting": "E. coli; E. coli CTX-M-32, n=1", "value": 6, "unit": "µg/mL"},
      {"measurement": "MICs range", "setting": "E. coli; E. coli CTX-M-97, n=1", "value": 2, "unit": "µg/mL"},
      {"measurement": "MICs range", "setting": "E. coli; E. coli DHA-1, n=1", "value": 1, "unit": "µg/mL"},
      {"measurement": "MICs range", "setting": "E. coli; E. coli SHV-2a, n=3", "value": "2 to 4", "unit": "µg/mL"},
      {"measurement": "MICs range", "setting": "E. coli; E. coli SHV-3, n=1", "value": ">32", "unit": "µg/mL"},
      {"measurement": "MICs range", "setting": "E. coli; E. coli SHV-12, n=1", "value": 8, "unit": "µg/mL"},
      {"measurement": "MICs range", "setting": "E. coli; E. coli TEM-1 penicillinase, n=5", "value": "0.09 to 0.12", "unit": "µg/mL"},
      {"measurement": "MICs range", "setting": "E. coli; E. coli TEM-12, n=1", "value": 8, "unit": "µg/mL"},
      {"measurement": "MICs range", "setting": "E. coli; E. coli TEM-29, n=2", "value": 4, "unit": "µg/mL"},
      {"measurement": "MICs range", "setting": "E. coli; E. coli TEM-133, n=1", "value": 12, "unit": "µg/mL"},
      {"measurement": "MICs range", "setting": "E. coli; E. coli VEB-1, n=1", "value": ">32", "unit": "µg/mL"},
      {"measurement": "MICs range", "setting": "E. coli; E. coli Wild-type, no resistance, n=5", "value": "0.05 to 0.19", "unit": "µg/mL"}
    ]},
    {"smiles": "C[C@]1(Cn2ccnn2)[C@H](C(=O)O)N2C(=O)C[C@H]2S1(=O)=O", "note": "[tazobactam]", "values": [
      {"measurement": "color of the wells", "setting": "Enterobacteriaceae", "value": "remained red"}
    ]}
  ]
}
